These results are taken from ChEMBL document CHEMBL5113489, “Design, synthesis, and biological evaluation of membrane-active honokiol derivatives as potent antibacterial agents” (Eur J Med Chem, 2022).

Data set [1] concerns Escherichia coli. Kind of data set: Anti-biofilm activity in Escherichia coli ATCC 25922 assessed as disruption rate of biofilm at 2 ug/ml measured by crystal violet staining method. In kind it is functional. Particulars: dose 2 µg/ml.
For data set [2], the system named is Staphylococcus aureus. Description: Anti-biofilm activity in Staphylococcus aureus ATCC 43300 assessed as disruption rate of biofilm at 16 ug/ml measured by crystal violet staining method. In kind it is functional. Particulars: dose 16 µg/ml.
In data set [3] the test system is Staphylococcus aureus. Description: Anti-biofilm activity in Staphylococcus aureus ATCC 43300 assessed as disruption rate of biofilm at 2 ug/ml measured by crystal violet staining method. In kind it is functional. The settings on record: dose 2 µg/ml.
Data set [4] deals with Staphylococcus aureus. Kind of data set: Anti-biofilm activity in Staphylococcus aureus ATCC 43300 assessed as inhibition of biofilm formation at 0.5 ug/ml. In kind it is functional.
A short description of data set [5]: Toxicity in septicemia mouse model infected with Staphylococcus aureus ATCC 43300 assessed as effect on kidney at 5 to 10 mg/kg, administered every 12 hrs for 3 days measured by histopathological analysis. It counts as organism-based. The settings on record: in vivo, dose 5-10 mg/kg.
Data set [6] concerns Escherichia coli. Kind of data set: Anti-biofilm activity in Escherichia coli ATCC 25922 assessed as inhibition of biofilm formation at 2 ug/ml. In kind it is functional.
Data set [7] concerns Escherichia coli. Description: Anti-biofilm activity in Escherichia coli ATCC 25922 assessed as inhibition of biofilm formation at 8 ug/ml. It counts as functional.
For data set [8], the system named is Staphylococcus aureus. Kind of data set: Antibacterial activity against Staphylococcus aureus ATCC 43300 assessed as bacterial killing at 8XMIC incubated for 3 hrs and measured by time-kill kinetic study. In kind it is functional.
Another data set has as its system Cell membrane. Kind of data set: Induction of inner membrane permeabilization in Staphylococcus aureus ATCC 43300 assessed as increase in PI uptake by measuring increase in fluorescence intensity at 1 to 8 ug/ml by propidium iodide staining based fluorescence analysis. It counts as subcellular. The settings on record: dose 1-8 µg/ml.
The next data set deals with Bacillus subtilis. Kind of data set: Antibacterial activity against Bacillus subtilis ATCC 9372. In kind it is functional.
The nature of data set [9]: Selectivity index, ratio of HC50 for hemolytic activity in sheep RBC to MIC for antibacterial activity against Staphylococcus aureus ATCC 43300. It counts as toxicity. Particulars: sheep red blood cells (erythrocytes).
Data set [10] deals with Staphylococcus aureus. Description: In vivo antibacterial activity against Staphylococcus aureus ATCC 43300 in septicemia mouse model assessed as log reduction in bacterial load in liver at 10 mg/kg, administered every 12 hrs for 3 days. In kind it is functional.
In data set [11] the test system is Staphylococcus aureus. Description: Anti-biofilm activity in Staphylococcus aureus ATCC 43300 assessed as inhibition of biofilm formation at 4 ug/ml. In kind it is functional.
The subject of data set [12] is Staphylococcus aureus. Kind of data set: Antibacterial activity against Staphylococcus aureus ATCC 43300. In kind it is functional.
In data set [13] the test system is Staphylococcus aureus. Kind of data set: Anti-biofilm activity in Staphylococcus aureus ATCC 43300 assessed as inhibition of biofilm formation at 0.25 ug/ml. It counts as functional.
For data set [14], the system named is Staphylococcus aureus. Description: Anti-biofilm activity in Staphylococcus aureus ATCC 43300 assessed as inhibition of biofilm formation at 2 ug/ml. In kind it is functional.
Data set [15] has as its system Escherichia coli. Kind of data set: Anti-biofilm activity in Escherichia coli ATCC 25922 assessed as disruption rate of biofilm at 4 ug/ml measured by crystal violet staining method. It counts as functional. The settings on record: dose 4 µg/ml.
Data set [16] has as its system Escherichia coli. Kind of data set: Anti-biofilm activity in Escherichia coli ATCC 25922 assessed as inhibition of biofilm formation at 4 ug/ml. In kind it is functional.
Another data set has as its system Pseudomonas aeruginosa. Description: Antibacterial activity against Pseudomonas aeruginosa ATCC 27853. It counts as functional.
Data set [17] can be described thus: Cytotoxicity against human HepG2 cells assessed as cell viability at 16 ug/ml measured by SRB assay. It counts as toxicity, cell-based. The settings on record: at 16 µg/mL, read-out: Activity. Background: In SRB staining, fixed cells bind dye roughly in proportion to their protein.
The subject of data set [18] is Escherichia coli. Kind of data set: Anti-biofilm activity in Escherichia coli ATCC 25922 assessed as inhibition of biofilm formation at 1 ug/ml. It counts as functional.
The subject of data set [19] is Staphylococcus aureus. Description: Anti-biofilm activity in Staphylococcus aureus ATCC 43300 assessed as disruption rate of biofilm at 1 ug/ml measured by crystal violet staining method. In kind it is functional. Particulars: dose 1 µg/ml.
The test system of data set [20] is Staphylococcus aureus. Description: Antibacterial activity against Staphylococcus aureus ATCC 43300 assessed as resistance development by measuring fold increase in MIC. In kind it is functional.

Calls of active or inactive are those of the source. No cut-off for these calls is given here.

Take `C=CCc1ccc(OCCC[N+](C)(C)CCCCCC)c(-c2ccc(OCCC[N+](C)(C)CCCCCC)c(CC=C)c2)c1.[Br-].[Br-]`: the Activity was 15.1% in the data set with Escherichia coli [1]; 39.12% in the data set with Staphylococcus aureus [2]; 11.43% in the data set with Staphylococcus aureus [3]; “Non-Toxic” in data set [5]; 100% in the data set with Staphylococcus aureus [8]; 27.99% in the data set with Escherichia coli [15]. Also, in the data set with Staphylococcus aureus [19], the Activity worked out at 9.59%. The inhibition (in general, the share of the control response that was lost under treatment) at 0.5 µg/mL with Staphylococcus aureus [4] amounted to 9.72%. For the same compound, the inhibition at 2 µg/mL is 24.3% in the data set with Escherichia coli [6] and 20.1% in the data set on Staphylococcus aureus [14]. Also, the inhibition at 8 µg/mL in the data set with Escherichia coli [7] is 49.3%. For the same compound, the outcome in the data set on Cell membrane was Active. For the same compound, the MIC (commonly the lowest concentration found to suppress growth) against Bacillus subtilis is 1 µg/mL; in the data set with Staphylococcus aureus [12] it was 1 µg/mL; in the data set with Pseudomonas aeruginosa, 16 µg/mL. Further, in data set [9], the selectivity ratio was determined as 410. In addition, in the data set with Staphylococcus aureus [10], the “log(activity)” value was 2.35. The inhibition at 4 µg/mL with Staphylococcus aureus [11] was found to be 91.2%; in the data set with Escherichia coli [16] it was 35.3%. In the data set on Staphylococcus aureus [13], the inhibition at 0.25 µg/mL came out at 4.06%. Further, the viability at 16 ug/ml in data set [17] was found to be 85.4%. The inhibition at 1 µg/mL with Escherichia coli [18] was 11.3%. In addition, the “fold change (FC)” value with Staphylococcus aureus [20] was less than 4.
